Literature values, collected in PubChem BioAssay AID1259409 (Chemical Carcinogenesis Research Information System (CCRIS), 2018).

System: rodent chemically induced tumor inhibition, incidence and multiplicity
Test: CCRIS tumor inhibitor studies

S=C=NCCCCCCc1ccccc1
tumour outcome (control, treated, inhibition, significance) (Carcinogen: 4-(METHYLNITROSAMINO)-1-(3-PYRIDYL)-1-BUTANONE, 64091-91-4, Dose [Inhibitor]: 0, 1 UMOL/G DIET FOR DURATION OF STUDY BEGINNING 1 WK PRIOR TO CARCINOGEN TREATMENT (STUDY DURATION: 112 WK), Route [Inhibitor]: ORAL, Species: RAT, Strain/Sex: F344/MALE, Target Tissue: Type of Lesion: PANCREAS: ACINAR ADENOMA, Dose [Carcinogen]: 2 PPM IN DRINKING WATER FOR 111 WK, Promoter: NONE USED): 1/52 (2%), 6/50 (12%), -500%, p=0.04 | tumour outcome (control, treated, inhibition, significance) (Carcinogen: 4-(METHYLNITROSAMINO)-1-(3-PYRIDYL)-1-BUTANONE, 64091-91-4, Dose [Inhibitor]: 0, 1 UMOL/G DIET FOR DURATION OF STUDY BEGINNING 1 WK PRIOR TO CARCINOGEN TREATMENT (STUDY DURATION: 112 WK), Route [Inhibitor]: ORAL, Species: RAT, Strain/Sex: F344/MALE, Target Tissue: Type of Lesion: PANCREAS: MALIGNANT TUMOR, Dose [Carcinogen]: 2 PPM IN DRINKING WATER FOR 111 WK, Promoter: NONE USED): 4/52 (8%), 1/50 (2%), 75%, not significant | tumour outcome (control, treated, inhibition, significance) (Carcinogen: 4-(METHYLNITROSAMINO)-1-(3-PYRIDYL)-1-BUTANONE, 64091-91-4, Dose [Inhibitor]: 0, 5 UMOL IN 0.1 ML CORN OIL ONCE 2 HR PRIOR TO CARCINOGEN DOSE (STUDY DURATION: 16 WK), Route [Inhibitor]: GAVAGE, Species: MOUSE, Strain/Sex: STRAIN-A/FEMALE, Target Tissue: Type of Lesion: LUNG: ADENOMA, Dose [Carcinogen]: 10 UMOL IN 0.1 ML SALINE ONCE, Promoter: NONE USED): 100%, 25%, 75%, p<0.01 | tumour outcome (control, treated, inhibition, significance) (Carcinogen: 4-(METHYLNITROSAMINO)-1-(3-PYRIDYL)-1-BUTANONE, 64091-91-4, Dose [Inhibitor]: 0, 438 PPM IN DIET FOR 22 WK BEGINNING 1 WK PRIOR TO CARCINOGEN DOSE (STUDY DURATION: 98 WK), Route [Inhibitor]: ORAL, Species: RAT, Strain/Sex: F344/MALE, Target Tissue: Type of Lesion: NASAL CAVITY: TUMOR, Dose [Carcinogen]: 1.5 MG/KG BW 3/WK FOR 20 WK, Promoter: NONE USED): 28/36 (78%), 27/36 (75%), 4%, not significant | tumour outcome (control, treated, inhibition, significance) (Carcinogen: 4-(METHYLNITROSAMINO)-1-(3-PYRIDYL)-1-BUTANONE, 64091-91-4, Dose [Inhibitor]: 0, 438 PPM IN DIET FOR 22 WK BEGINNING 1 WK PRIOR TO CARCINOGEN TREATMENT (STUDY DURATION: 98 WK), Route [Inhibitor]: ORAL, Species: RAT, Strain/Sex: F344/MALE, Target Tissue: Type of Lesion: LUNG: TUMOR, Dose [Carcinogen]: 1.5 MG/KG BW 3/WK FOR 20 WK, Promoter: NONE USED): 22/33 (67%), 7/36 (19%), 72%, p<0.01 | tumour outcome (control, treated, inhibition, significance) (Carcinogen: 4-(METHYLNITROSAMINO)-1-(3-PYRIDYL)-1-BUTANONE, 64091-91-4, Dose [Inhibitor]: 0, 876 PPM IN DIET FOR 22 WK BEGINNING 1 WK PRIOR TO CARCINOGEN TREATMENT (STUDY DURATION: 98 WK), Route [Inhibitor]: ORAL, Species: RAT, Strain/Sex: F344/MALE, Target Tissue: Type of Lesion: LUNG: TUMOR, Dose [Carcinogen]: 1.5 MG/KG BW 3/WK FOR 20 WK, Promoter: NONE USED): 22/33 (67%), 8/34 (24%), 64%, p<0.01 | tumour outcome (control, treated, inhibition, significance) (Carcinogen: 4-(METHYLNITROSAMINO)-1-(3-PYRIDYL)-1-BUTANONE, 64091-91-4, Dose [Inhibitor]: 0, 876 PPM IN DIET FOR 22 WK BEGINNING 1 WK PRIOR TO CARCINOGEN TREATMENT (STUDY DURATION: 98 WK), Route [Inhibitor]: ORAL, Species: RAT, Strain/Sex: F344/MALE, Target Tissue: Type of Lesion: NASAL CAVITY: TUMOR, Dose [Carcinogen]: 1.5 MG/KG BW 3/WK FOR 20 WK, Promoter: NONE USED): 28/36 (78%), 27/36 (75%), 4%, not significant | tumour outcome (control, treated, inhibition, significance) (Carcinogen: 4-(METHYLNITROSAMINO-1-(3-PYRIDYL)-1-BUTANONE, 64091-91-4, Dose [Inhibitor]: O, 0.2 UMOL 1/D FOR 4 D ADMINISTERED PRIOR TO CARCINOGEN TREATMENT (STUDY DURATION: 116 D), Route [Inhibitor]: GAVAGE, Species: MOUSE, Strain/Sex: STRAIN A, Target Tissue: Type of Lesion: LUNG: ADENOMA, Dose [Carcinogen]: 10 UMOL ONCE 2 HR AFTER FINAL DOSE OF INHIBITOR, Promoter: NONE USED): 100%, 70%, 30%, p<0.05 | outcome (Carcinogen: BENZO[A]PYRENE, 50-32-8, Dose [Inhibitor]: 0, 5 UMOL IN ACETONE 4 HR PRIOR TO CARCINOGEN DOSE (STUDY DURATION: 20 WK), Route [Inhibitor]: DERMAL, Species: MOUSE, Strain/Sex: STRAIN-A/FEMALE, Target Tissue: Type of Lesion: SKIN: TUMOR, Dose [Carcinogen]: 0.1 UMOL IN ACETONE ONCE, Promoter: 12-O-TETRADECANOYLPHORBOL-13-ACETATE, 16561-29-8): 70%, 90%, 29%, not significant at 15 wk; 95%, 95%, 0%, not significant at 20 wk | tumour outcome (control, treated, inhibition, significance) (Carcinogen: N-BUTYL-N(4-HYDROXYBUTYL)NITROSAMINE (3817-11-6), Dose [Inhibitor]: 0.5 UMOL/G IN DIET BEGINNING 1 WK BEFORE CARCINOGEN EXPOSURE (STUDY DURATION: 16 WK), Route [Inhibitor]: ORAL, Species: RAT, Strain/Sex: WISTAR/MALE, Target Tissue: Type of Lesion: URINARY BLADDER: PAPILLOMA, Dose [Carcinogen]: 0.025% IN DRINKING WATER FOR 15 WK, Promoter: NONE USED): 38/40 (95%), 24/30 (80%), 16%, not significant | tumour outcome (control, treated, inhibition, significance) (Carcinogen: N-NITROSOMETHYLBENZYLAMINE [937-40-6], Dose [Inhibitor]: 0, 1 MMOL/KG DIET IMMEDIATELY POST LAST CARCINOGEN DOSE (STUDY DURATION: 25 WK), Route [Inhibitor]: ORAL, Species: RAT, Strain/Sex: F344/MALE, Target Tissue: Type of Lesion: ESOPHAGUS: TUMOR, Dose [Carcinogen]: 0.5 MG/KG BW IN 20% DMSO 3 TIMES/WK FOR 5 WK (STUDY DURATION: 25 WK), Promoter: NONE): 100%, 100%, 0%, not significant | tumour outcome (control, treated, inhibition, significance) (Carcinogen: N-NITROSOMETHYLBENZYLAMINE [937-40-6], Dose [Inhibitor]: 0, 2.5 MMOL/KG DIET IMMEDIATELY POST LAST CARCINOGEN DOSE (STUDY DURATION: 25 WK), Route [Inhibitor]: ORAL, Species: RAT, Strain/Sex: F344/MALE, Target Tissue: Type of Lesion: ESOPHAGUS: TUMOR, Dose [Carcinogen]: 0.5 MG/KG BW IN 20% DMSO 3 TIMES/WK FOR 5 WK (STUDY DURATION: 25 WK), Promoter: NONE): 100%, 100%, 0%, not significant
